Measured values reported in ChEMBL document CHEMBL1153715, “An antimicrobial guanidine-bearing sesterterpene from the cultured cyanobacterium Scytonema sp” (J Nat Prod, 2009).
Converted amounts (≈) assume the structure as drawn.

Experiments:
Vero = test: Cytotoxicity against african green monkey Vero cells by cell Titer_Glo assay; assay type: cell-based; details: Chlorocebus sabaeus
Candida albicans = test: Antifungal activity against Candida albicans by broth microdilution method; assay type: functional
Bacillus anthracis = test: Antibacterial activity against Bacillus anthracis after 18 hrs by broth microdilution method; assay type: functional
Staphylococcus aureus = test: Antibacterial activity against Staphylococcus aureus by broth microdilution method; assay type: functional
[1] = tested on: Mycobacterium tuberculosis; test: Antitubercular activity against Mycobacterium tuberculosis H37Rv after 7 days by microplate alamar blue assay; assay type: functional; details: 168 h
Escherichia coli = test: Antibacterial activity against Escherichia coli by broth microdilution method; assay type: functional

SMILES: C=C1CC[C@@H]2[C@](C)(CC[C@H]3[C@@]2(C)CC[C@H]2C(C)(C)CC[C@@H](O)[C@@]23C)[C@H]1CNC(=N)N [SCYTOSCALAROL]
- IC50 (Vero): 135 µM
- MIC (Candida albicans): 4 µM (≈ 1.66 µg/mL)
- MIC (Bacillus anthracis): 6 µM (≈ 2.49 µg/mL)
- MIC (Staphylococcus aureus): 2 µM (≈ 0.831 µg/mL)
- MIC [1]: 110 µM (≈ 45.7 µg/mL)
- MIC (Escherichia coli): 30 µM (≈ 12.5 µg/mL)
